# Assay results published in patent publication US10233173B2, “Substituted 1,2,3-triazoles as NR2B-selective NMDA modulators” (JANSSEN PHARMACEUTICA NV, priority 2016, dated 2019).
# Target: human GluN1/GluN2B NMDA receptors (Homo sapiens, UniProt Q05586+Q13224)
# Assay: Cell-based calcium flux (FLIPR) assay on cloned human NR1/NR2B ion channels expressed in mammalian cells
# Settings: standard assay; human GluN1/GluN2B, calcium flux (FLIPR), glutamate ~EC80
# How it was run: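 Calcium influx followed by FLIPR fluorescence after 5 min compound exposure and a further 5 min co-agonist challenge: 10 μM glycine with glutamate at ~EC80 (standard) or EC40 (HTS).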
# Sequence of human GluN1/GluN2B NMDA receptors (Q13224 27-1484, other chains not shown): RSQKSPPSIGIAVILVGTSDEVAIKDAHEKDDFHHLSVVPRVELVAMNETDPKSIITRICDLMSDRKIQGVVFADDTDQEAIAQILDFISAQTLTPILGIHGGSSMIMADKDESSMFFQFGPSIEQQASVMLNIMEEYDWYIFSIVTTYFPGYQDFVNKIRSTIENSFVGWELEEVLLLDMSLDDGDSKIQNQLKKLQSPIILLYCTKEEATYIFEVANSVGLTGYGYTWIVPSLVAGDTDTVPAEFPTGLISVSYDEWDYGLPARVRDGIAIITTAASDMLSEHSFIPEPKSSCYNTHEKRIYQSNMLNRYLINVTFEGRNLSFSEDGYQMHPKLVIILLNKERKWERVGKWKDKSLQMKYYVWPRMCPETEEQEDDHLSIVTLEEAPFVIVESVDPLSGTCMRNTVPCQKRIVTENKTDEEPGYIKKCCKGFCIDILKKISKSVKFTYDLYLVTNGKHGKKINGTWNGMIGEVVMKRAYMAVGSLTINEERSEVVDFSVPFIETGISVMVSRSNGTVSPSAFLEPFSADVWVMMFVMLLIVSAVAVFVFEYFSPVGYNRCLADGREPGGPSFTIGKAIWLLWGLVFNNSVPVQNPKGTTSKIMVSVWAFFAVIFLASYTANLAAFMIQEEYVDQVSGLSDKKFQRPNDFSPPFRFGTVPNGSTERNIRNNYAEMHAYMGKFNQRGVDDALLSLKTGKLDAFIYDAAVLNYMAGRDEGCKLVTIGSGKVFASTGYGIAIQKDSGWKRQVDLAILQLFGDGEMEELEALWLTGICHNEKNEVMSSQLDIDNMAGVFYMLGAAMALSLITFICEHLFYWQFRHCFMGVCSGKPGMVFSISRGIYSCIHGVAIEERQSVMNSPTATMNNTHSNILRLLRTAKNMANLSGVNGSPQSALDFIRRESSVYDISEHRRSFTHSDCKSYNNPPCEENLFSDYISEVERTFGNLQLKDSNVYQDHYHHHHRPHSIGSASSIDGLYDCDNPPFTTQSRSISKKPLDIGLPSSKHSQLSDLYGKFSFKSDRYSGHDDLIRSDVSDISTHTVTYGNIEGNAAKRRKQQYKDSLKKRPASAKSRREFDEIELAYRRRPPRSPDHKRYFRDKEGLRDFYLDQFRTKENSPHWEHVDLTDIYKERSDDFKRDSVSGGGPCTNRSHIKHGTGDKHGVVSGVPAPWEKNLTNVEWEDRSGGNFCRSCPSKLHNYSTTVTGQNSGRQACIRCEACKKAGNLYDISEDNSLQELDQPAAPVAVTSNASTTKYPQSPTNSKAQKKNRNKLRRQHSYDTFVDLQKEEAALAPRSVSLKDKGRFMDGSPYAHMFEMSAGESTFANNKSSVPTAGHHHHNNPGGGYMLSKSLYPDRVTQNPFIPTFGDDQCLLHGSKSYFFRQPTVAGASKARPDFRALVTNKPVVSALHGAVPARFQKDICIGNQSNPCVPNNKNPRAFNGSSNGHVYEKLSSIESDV
row,SMILES,IC50 [µM]
1,"Fc1ccc(-n2cc(COc3nccc(N4CCCC4)n3)nn2)cc1OC(F)F [Example 168, 2-[[1-[3-(Difluoromethoxy)-4-fluoro-phenyl]triazol-4-yl]methoxy]-4-pyrrolidin-1-yl-pyrimidine]",0.008
2,"Fc1ccc(-n2cc(COc3nccc(N4CCCCC4)n3)nn2)cc1OC(F)F [Example 169, 2-[[1-[3-(Difluoromethoxy)-4-fluoro-phenyl]triazol-4-yl]methoxy]-4-(1-piperidyl)pyrimidine]",0.031
3,"Fc1ccc(-n2cc(COc3nccc(N4CCOCC4)n3)nn2)cc1OC(F)F [Example 170, 4-[2-[[1-[3-(Difluoromethoxy)-4-fluoro-phenyl]triazol-4-yl]methoxy]pyrimidin-4-yl]morpholine]",0.26
4,"CNc1ccnc(OCc2cn(-c3ccc(Cl)c(OC(F)F)c3)nn2)n1 [Example 171, 2-[[1-[4-Chloro-3-(difluoromethoxy)phenyl]triazol-4-yl]methoxy]-N-methyl-pyrimidin-4-amine]",0.006
5,"COc1cnc(OCc2nnn(-c3cccc(C(F)F)c3)c2C)nc1 [Example 172, 2-[[1-[3-(Difluoromethyl)phenyl]-5-methyl-triazol-4-yl]methoxy]-5-methoxy-pyrimidine]",0.468
6,"Cc1cnc(OCc2nnn(-c3ccc(F)c(C(C)(F)F)c3)c2C)nc1 [Example 173, 2-[[1-[3-(1,1-Difluoroethyl)-4-fluoro-phenyl]-5-methyl-triazol-4-yl]methoxy]-5-methyl-pyrimidine]",0.465
7,"Cc1cnc(OCc2cn(-c3cccc(C)n3)nn2)nc1 [Example 174, 5-Methyl-2-[[1-(6-methyl-2-pyridyl)triazol-4-yl]methoxy]pyrimidine]",> 2.99
8,"Cc1cnc(OCc2cn(-c3ccnc(C)c3)nn2)nc1 [Example 175, 5-Methyl-2-[[1-(2-methyl-4-pyridyl)triazol-4-yl]methoxy]pyrimidine]",0.655
9,"Cc1cnc(OCc2cn(-c3cncc(C)c3)nn2)nc1 [Example 176, 5-Methyl-2-[[1-(5-methyl-3-pyridyl)triazol-4-yl]methoxy]pyrimidine]",0.929
10,"Cc1cnc(OCc2cn(-c3ccnc(Br)c3)nn2)nc1 [Example 177, 2-[[1-(2-Bromo-4-pyridyl)triazol-4-yl]methoxy]-5-methyl-pyrimidine]",0.172
11,"CC(C)(O)c1cnc(OCc2cn(-c3ccc(F)c(C4CCC4)c3)nn2)nc1 [Example 178, 2-[2-[[1-(3-Cyclobutyl-4-fluoro-phenyl)triazol-4-yl]methoxy]pyrimidin-5-yl]propan-2-ol]",0.349
12,"CC(C)c1cc(-n2cc(COc3ncc(C(C)(C)O)cn3)nn2)ccc1F [Example 179, 2-[2-[[1-(4-Fluoro-3-isopropyl-phenyl)triazol-4-yl]methoxy]pyrimidin-5-yl]propan-2-ol]",0.029
13,"CC(C)(O)c1cnc(OCc2cn(-c3ccc(F)c(C4CC4)c3)nn2)nc1 [Example 180, 2-[2-[[1-(3-Cyclopropyl-4-fluoro-phenyl)triazol-4-yl]methoxy]pyrimidin-5-yl]propan-2-ol]",0.133
14,"Cc1cc(-n2cc(COc3ncc(C(C)(C)O)cn3)nn2)ccc1F [Example 181, 2-[2-[[1-(4-Fluoro-3-methyl-phenyl)triazol-4-yl]methoxy]pyrimidin-5-yl]propan-2-ol]",0.097
15,"CCc1cc(-n2cc(COc3ncc(C(C)(C)O)cn3)nn2)ccc1F [Example 182, 2-[2-[[1-(3-Ethyl-4-fluoro-phenyl)triazol-4-yl]methoxy]pyrimidin-5-yl]propan-2-ol]",0.027
16,"CC(F)(F)c1cc(-n2cc(COc3ncc(Br)cn3)nn2)ccc1F [Example 183, 5-Bromo-2-[[1-[3-(1,1-difluoroethyl)-4-fluoro-phenyl]triazol-4-yl]methoxy]pyrimidine]",0.009
17,"Cn1ccc(-c2cnc(OCc3cn(-c4ccc(F)c(C(C)(F)F)c4)nn3)nc2)n1 [Example 184, 2-[[1-[3-(1,1-Difluoroethyl)-4-fluoro-phenyl]triazol-4-yl]methoxy]-5-(1-methylpyrazol-3-yl)pyrimidine]",0.309
18,"CC(F)(F)c1cc(-n2cc(COc3ncc(-c4cn[nH]c4)cn3)nn2)ccc1F [Example 185, 2-[[1-[3-(1,1-Difluoroethyl)-4-fluoro-phenyl]triazol-4-yl]methoxy]-5-(1H-pyrazol-4-yl)pyrimidine]",0.166
19,"CC(F)(F)c1cc(-n2cc(COc3nccc(-c4cn[nH]c4)n3)nn2)ccc1F [Example 186, 2-[[1-[3-(1,1-Difluoroethyl)-4-fluoro-phenyl]triazol-4-yl]methoxy]-4-(1H-pyrazol-4-yl)pyrimidine]",1.36
20,"CC(F)(F)c1cc(-n2cc(COc3ncc(N4CCOCC4)cn3)nn2)ccc1F [Example 187, 4-(2-((1-(3-(1,1-Difluoroethyl)-4-fluorophenyl)-1H-1,2,3-triazol-4-yl)methoxy)pyrimidin-5-yl)morpholine]",0.088
21,"FC(F)c1cc(-n2cc(COc3ncccn3)nn2)ccc1N1CCC1 [Example 188, 2-((1-(4-(Azetidin-1-yl)-3-(difluoromethyl)phenyl)-1H-1,2,3-triazol-4-yl)methoxy)pyrimidine]",4.58
22,"Fc1cnc(OCc2cn(-c3ccc(Cl)c(OC(F)F)c3)nn2)cn1 [Example 189, 2-[[1-[4-Chloro-3-(difluoromethoxy)phenyl]triazol-4-yl]methoxy]-5-fluoro-pyrazine]",1.46
23,"FC(F)Oc1cc(-n2cc(COc3nccc(Cl)n3)nn2)ccc1Cl [Example 190, 4-Chloro-2-[[1-[4-chloro-3-(difluoromethoxy)phenyl]triazol-4-yl]methoxy]pyrimidine]",0.026
24,"Fc1ccnc(OCc2cn(-c3ccc(Cl)c(OC(F)F)c3)nn2)n1 [Example 191, 2-[[1-[4-Chloro-3-(difluoromethoxy)phenyl]triazol-4-yl]methoxy]-4-fluoro-pyrimidine]",0.023
25,"FCCOc1cnc(OCc2cn(-c3ccc(Cl)c(OC(F)F)c3)nn2)nc1 [Example 192, 2-[[1-[4-Chloro-3-(difluoromethoxy)phenyl]triazol-4-yl]methoxy]-5-(2-fluoroethoxy)pyrimidine]",0.03
26,"COc1cnc(OCc2cn(-c3ccc(Cl)c(OCCF)c3)nn2)nc1 [Example 193, 2-[[1-[4-Chloro-3-(2-fluoroethoxy)phenyl]triazol-4-yl]methoxy]-5-methoxy-pyrimidine]",0.089
27,"COc1cnc(OCc2cn(-c3ccc(F)c(CCCF)c3)nn2)nc1 [Example 194, 2-[[1-[4-Fluoro-3-(3-fluoropropyl)phenyl]triazol-4-yl]methoxy]-5-methoxy-pyrimidine]",0.061
28,"COc1cnc(OCc2cn(-c3ccc(F)c(CCCCl)c3)nn2)nc1 [Example 195, 2-[[1-[3-(3-Chloropropyl)-4-fluoro-phenyl]triazol-4-yl]methoxy]-5-methoxy-pyrimidine]",0.136
29,"FCCCc1cnc(OCc2cn(-c3ccc(Cl)c(OC(F)F)c3)nn2)nc1 [Example 196, 2-[[1-[4-Chloro-3-(difluoromethoxy)phenyl]triazol-4-yl]methoxy]-5-(3-fluoropropyl)pyrimidine]",0.024
30,"Fc1cnc(NCc2cn(-c3cccc(C(F)F)c3)nn2)nc1 [Example 197, N-[[1-[3-(Difluoromethyl)phenyl]triazol-4-yl]methyl]-5-fluoro-pyrimidin-2-amine]",0.652
